Each structure is given as a SMILES string. Bounds are passed on as bounds.

For one assay, the system named is Trypanosoma brucei brucei. Description: microbe, parasite or virus in culture. The assay is classed as functional, organism-based, STIB 795.
Conditions: not given
`Cn1c(-c2ccco2)nn(C2CC(=O)C3OCC2O3)c1=S` (configuration not stated) showed an IC50 of 3.25 µM.
Still for that read-out and setting: then `Cc1ccccc1-c1nnnn1C1CC(=O)C2OCC1O2` (configuration not stated), with 4.75 µM.
For the compound `Cc1c(C)n(CC(O)CNCc2ccccc2)c2ccccc12` (configuration not stated), the concentration for half-maximal inhibition (IC50) was found to be 7.63 µM.
On the same count and under the same terms, the same measure for `Cc1ccc(OCc2nn(C3CC(=O)C4OCC3O4)c(=S)n2C)cc1C` (configuration not stated): 4.62 µM.

The same assay, now with this note: Trypanosoma brucei, STIB 795.
Regarding `CCn1c2ccccc2c2cc(NC(=O)C(=O)NCCCN(C)C)ccc21`, the IC50 was above 10.4 µM.
On the same count and under the same terms, the same measure for `CCN(CC)CC(O)CN(/N=C/c1ccc(N(CC)CC)cc1)c1ccccc1` (configuration not stated): above 10.4 µM.
On the same count and under the same terms, then `CCN(CC)C(=O)c1ccc(Nc2ccnc3cc4ccccc4cc23)cc1`, with above 10.4 µM.
On the same count and under the same terms, then `CCOC(=O)C1CCCN(C2=NC(=O)/C(=C/c3ccc(O)c(OC)c3)S2)C1` (configuration not stated), with above 10.4 µM.
On to `CC1(C)CC(=O)C(C2(O)C(=O)Nc3ccc(Br)cc32)CO1` (configuration not stated), for which the IC50 was above 10.4 µM.
The same measure, in the same setting: the same measure for `C/C(=N\NC(=O)c1ccc(C)c(Br)c1)c1ccc(O)cc1O`: above 10.4 µM; for `CC[n+]1c(/C=C2\Sc3ccccc3N2CCC(=O)O)sc2ccccc21`: above 10.4 µM; for `CCC(C)(C)c1ccc(OCC(O)CNCc2ccccc2)c(C(C)(C)CC)c1` (configuration not stated): above 10.4 µM.
On the same count and under the same terms, the same measure for `CSc1ccc(/C=C2\CN(C)C/C(=C\c3ccc(SC)cc3)C2=O)cc1`: above 10.4 µM.
Same read-out and setting: the same measure for `OC(CNCCc1ccccc1)Cn1c2c(c3ccccc31)CCCC2` (configuration not stated): above 10.4 µM.
Compound `CCc1no[c+](-c2ccccc2O)n1C` gave an IC50 above 10.4 µM.
Still for that read-out and setting: then `COc1ccc(-c2nc3c(=O)n(C)c(=O)nc-3n(C)n2)cc1OC`, with above 10.4 µM.
The same measure, in the same setting: then `N#Cc1c(N)nc(SCc2ccccc2)c(C#N)c1C1CCCCC1`, with above 10.4 µM.
Same read-out and setting: the same measure for `O=C(/C(=C/c1cccnc1)c1nc2ccccc2[nH]1)c1ccccc1`: above 10.4 µM.
For the compound `Cc1occc1C(=O)N/N=C/c1ccc(-c2ccc(Cl)cc2Cl)o1`, the half-inhibitory concentration (IC50) was above 10.4 µM.
The same measure, in the same setting: the same measure for `COc1nc(Nc2nc(O)c3ccccc3n2)nc2ccc(C)cc12`: above 10.4 µM.
As to `C=CCN1C(=O)c2ccccc2Sc2ccc(C(=O)NCc3ccco3)cc21`, the IC50 was above 10.4 µM.
The same measure, in the same setting: the same measure for `CCn1c(-c2ccccc2Cl)nc2ccccc21`: above 10.4 µM; for `Cc1cc(N)n2ncc(-c3ccc(Cl)cc3)c2n1`: above 10.4 µM.
On the same count and under the same terms, then `Cc1ccc(Nc2nc3c(N)nnc(N)c3nc2Nc2ccc(C)cc2)cc1`, with above 10.4 µM; and `O=C1C(Nc2ccccc2)=C/C(=N/S(=O)(=O)c2cccs2)c2ccccc21`, with above 10.4 µM; and `Cc1ccc(Nc2nn3nnnc3c3ccccc23)c(C)c1`, with above 10.4 µM.
Still for that read-out and setting: then `CC1CCc2nc3ccccc3c(N)c2C1` (configuration not stated), with above 10.4 µM; and `CC(C)N1C/C(=C\c2cccc(Cl)c2)C(=O)/C(=C/c2cccc(Cl)c2)C1`, with above 10.4 µM.
On to `ON=C1C=CC(=NNc2nncc3ccccc23)C=C1`, for which the IC50 was above 10.4 µM.
Same read-out and setting: the same measure for `Cc1ccc(C(CC(=O)c2ccco2)SCCO)cc1` (configuration not stated): above 10.4 µM; for `N=c1n(Cc2ccccc2Cl)c2ccccc2n1CC(O)c1ccco1` (configuration not stated): above 10.4 µM; for `O=C(CCCOc1ccc(Cl)cc1Cl)N/N=C/c1ccc(O)cc1O`: above 10.4 µM.
Consider `CCOC(=O)c1ccc(CCCCCOc2cnc(N)nc2N)cc1`, for which the IC50 was above 10.4 µM.
As to `CCN(CC)CCOC(COC)(c1ccc(Cl)cc1)c1ccc(Cl)cc1`, the IC50 is above 10.4 µM.
Same read-out and setting: the same measure for `CN(C)CC/C=C(\c1ccccc1)c1cccc(C(F)(F)F)c1`: above 10.4 µM; for `CCOC(=O)Cc1csc(NC(=S)NC(=O)C2CCCCC2)n1`: above 10.4 µM; for `COCC(=O)N/N=C/c1ccc(Sc2cccc3cccnc23)o1`: above 10.4 µM.
On the same count and under the same terms, the same measure for `N#Cc1cc(C#N)c(SCC(=O)Nc2cccc(C(F)(F)F)c2)nc1N`: above 10.4 µM.
On the same count and under the same terms, the same measure for `O=C1/C(=N\c2ccccc2)Sc2ccccc21`: above 10.4 µM; for `CCCCOc1cccc(-c2cc(C(=O)N/N=C(\C)CC)c3ccccc3n2)c1`: above 10.4 µM; for `O=C(CC(SCc1ccco1)c1ccc(C(F)(F)F)cc1)c1ccco1` (configuration not stated): above 10.4 µM.
Compound `C/C(=N\Nc1nnc2c(n1)[nH]c1c(C)cccc12)c1ccccc1O` yielded an IC50 above 10.4 µM.
Same read-out and setting: the same measure for `CCC(=O)c1coc2ccc(O)cc12`: above 10.4 µM.
Compound `O=C(CCN1CCCCC1)Nc1ccc(C2CCCC2)cc1` displayed a concentration for half-maximal inhibition (IC50) above 10.4 µM.
Still for that read-out and setting: the same measure for `COc1ccccc1-n1c(C)cc(/C=C2\C(=N)N3C(C)=CSC3=NC2=O)c1C`: above 10.4 µM.
Still for that read-out and setting: the same measure for `Cc1c(-c2cc(Cl)cc3c2OC(C)(C)C3=O)ccc(N)c1C#N`: above 10.4 µM; for `CC1CCN(Cc2cc(CSc3ccccc3)c3cccnc3c2O)CC1`: above 10.4 µM.
Still for that read-out and setting: then `Cn1c(-c2ccco2)nn(C2CC(=O)C3OCC2O3)c1=S` (configuration not stated), with 5.5 µM; and `N=C(NOC(=O)c1cccc(Cl)c1)c1cccnc1`, with above 10.4 µM; and `O=C(CCSc1ccccc1)Nc1nc(-c2ccccn2)cs1`, with above 10.4 µM.
Compound `N=C1C=Cc2ccc(N)c3cccc1c23` showed an IC50 above 10.4 µM.
The same measure, in the same setting: the same measure for `COC(=O)C1=C(C)NC(=O)/C1=C\c1cccc(OC)c1OC`: above 10.4 µM; for `ON=C(/C=C/c1ccccc1)/C=C/c1ccccc1`: above 10.4 µM; for `C=CCNC(=O)CCCc1nc2cccnc2n1Cc1ccc(F)cc1`: above 10.4 µM.
Same read-out and setting: then `Cc1ccccc1-c1nnnn1C1CC(=O)C2OCC1O2` (configuration not stated), with 4.58 µM; and `C=CCc1cccc(/C=N/NC(=O)c2cc(C(C)(C)C)n[nH]2)c1O`, with above 10.4 µM; and `Clc1ccc(Nc2nc3nonc3nc2NC2CCCCC2)cc1Cl`, with above 10.4 µM.
The same measure, in the same setting: the same measure for `Oc1c(C(Nc2ccccn2)c2ccc(OC(F)F)cc2)ccc2cccnc12` (configuration not stated): above 10.4 µM; for `Cc1nc(N)nc(N)c1[C@@H]1CCC[C@@H](c2ccc(C(F)(F)F)cc2)C1`: above 10.4 µM; for `Cc1cc(Br)cc(/C=N/NC(=O)c2ccncc2)c1O`: above 10.4 µM.
With `O=C1N=C(Nc2cccc(Cl)c2Cl)S/C1=C\c1ccc(O)c(O)c1`, the half-maximal inhibitory concentration (IC50) was above 10.4 µM.
Still for that read-out and setting: the same measure for `Cc1c(C)n(CC(O)CNCc2ccccc2)c2ccccc12` (configuration not stated): 5.49 µM.
`O=C(O)c1ccccc1N/N=C(/c1ccccc1)c1ccc(Br)cc1` had a concentration for half-maximal inhibition (IC50) above 10.4 µM.
The same measure, in the same setting: the same measure for `O=C1C(O)=C/C(=N/c2ccc(Cc3ccncc3)cc2)c2ccccc21`: above 10.4 µM.
For `CC(/C=N/NC(=O)c1cc(-c2ccc(OC(C)C)cc2)n[nH]1)=C\c1ccccc1`, the IC50 is above 10.4 µM.
On the same count and under the same terms, the same measure for `COc1ccc(C(=O)NN=C2C=C(C(C)(C)C)C(=O)C(C(C)(C)C)=C2)cc1OC`: above 10.4 µM; for `Oc1ccccc1/C=N\NC(=S)Nc1ccc(F)cc1`: above 10.4 µM.
The compound `Cc1c(NC(=O)CN2CCN(C(=O)c3ccccc3)CC2)n(C)c2ccccc12` came in with an IC50 above 10.4 µM.
`CCC(=O)c1ccc(Oc2cc(=O)n(C)c(=O)n2C)cc1` returned an IC50 above 10.4 µM.
Still for that read-out and setting: the same measure for `Oc1ccc(/N=N/c2ccccc2C(F)(F)F)c2cccnc12`: above 10.4 µM; for `CCc1ccccc1Nc1cc(C)nc2c(OC)cccc12`: above 10.4 µM; for `Oc1ccccc1/C=N/Nc1nc2ccccc2n2nnnc12`: above 10.4 µM.
Still for that read-out and setting: the same measure for `CC(C)(C)C(=O)Nc1cccc(NC(=O)c2ccc(C(C)(C)C)cc2)c1`: above 10.4 µM.
Still for that read-out and setting: then `Oc1ccccc1/C=N/Nc1ncc(Cl)cc1Cl`, with above 10.4 µM; and `COc1cc(NS(=O)(=O)c2ccc(C)cc2)c2ncccc2c1`, with above 10.4 µM.
`N#CC(c1ccc(Cl)cc1Cl)c1cnnc2ccccc12` (configuration not stated) had an IC50 above 10.4 µM.
On the same count and under the same terms, then `O=c1[nH]c(NCCCO)nc2sc3c(c12)CCCC3`, with above 10.4 µM; and `Cc1ccc(OCc2nn(C3CC(=O)C4OCC3O4)c(=S)n2C)cc1C` (configuration not stated), with 4.31 µM.
The same measure, in the same setting: then `O=C(Nc1nccs1)c1ccc(=O)n(Cc2ccccc2Cl)c1`, with above 10.4 µM.
`CC(C)(C)c1ccc(CCC2OCC(CN3CCCC3)O2)cc1` (configuration not stated) yielded an IC50 above 10.4 µM.
Same read-out and setting: then `CC1=NN(c2ccccc2)C(=O)/C1=C/c1ccc(Sc2ccc(Cl)cc2)o1`, with above 10.4 µM; and `CCCN(CCC)CC(O)COc1ccc2ccccc2c1` (configuration not stated), with above 10.4 µM; and `OC(CNCc1ccccc1)COc1cc2ccsc2c2ccccc12` (configuration not stated), with above 10.4 µM.
`COC(=O)c1sc(=S)n(-c2cc(F)ccc2F)c1N` displayed an IC50 above 10.4 µM.
`CC(Cc1ccccc1)NCCC1c2ccccc2-c2ccccc21` (configuration not stated) had an IC50 above 10.4 µM.
Still for that read-out and setting: the same measure for `Fc1ccc(OCc2nn3c(-c4ccccc4Cl)nnc3s2)cc1`: above 10.4 µM.
Same read-out and setting: then `COc1ccc(-c2cc(-c3c(O)ccc4ccccc34)n[nH]2)cc1`, with above 10.4 µM; and `CCOC(=O)COc1ccc(/C=C\c2cc(C(F)(F)F)nc(=O)[nH]2)cc1OC`, with above 10.4 µM; and `CN(C)CCCC1Sc2ccccc2Sc2ccccc21` (configuration not stated), with above 10.4 µM.
`O=C(Nc1ccccc1C(=O)N/N=C/c1ccccc1O)c1ccco1` had an IC50 above 10.4 µM.
`CN(C)c1ccc(/C=N/Nc2cc(N3CCCC3)nc(N3CCCC3)n2)cc1` yielded an IC50 above 10.4 µM.
On the same count and under the same terms, the same measure for `CC(=O)c1sc(Nc2nc(NC(C)C)nc(NC(C)C)n2)nc1C`: above 10.4 µM.
On the same count and under the same terms, then `Cc1ccc(O)c(/C=N/NC(=O)c2[nH]ncc2Br)c1`, with above 10.4 µM.
Same read-out and setting: the same measure for `CN(C)c1ccc(C2(c3ccc(N(C)C)cc3)C=Cc3ccccc3O2)cc1`: above 10.4 µM.
On to `C(=N\Nc1nc(-c2ccccc2)cs1)/c1ccncc1`, for which the 50% inhibitory concentration (IC50) was above 10.4 µM.
Consider `O=C1c2ccc(Cl)c3c(Cl)ccc(c23)C(=O)N1Nc1ccccc1`, for which the concentration for half-maximal inhibition (IC50) is above 10.4 µM.
Same read-out and setting: the same measure for `Nc1ncc(CCc2cccc(-c3ccccc3)c2)c(N)n1`: above 10.4 µM; for `Cc1ccn(CC(=O)N/N=C/c2c(O)ccc3ccccc23)n1`: above 10.4 µM.
On the same count and under the same terms, then `O=C(NN=C(/C=C/c1ccccc1)c1ccccc1)c1cc2ccccc2cc1O`, with above 10.4 µM; and `COc1ccc(C(CC(=O)c2ccco2)SCc2ccco2)cc1OC` (configuration not stated), with above 10.4 µM.
Same read-out and setting: then `Cc1c(-c2cc(Cl)cc(-c3ccc(F)cc3)c2)ccc2nc(N)nc(N)c12`, with above 10.4 µM; and `O=C(Nc1ccc(Cl)c(-c2nc3ncccc3o2)c1)c1cccc(F)c1`, with above 10.4 µM.
Compound `CCC(C)(CC)c1ccc(C(CN)c2ccc(-c3ccccc3)cc2)cc1` (configuration not stated) registered an IC50 above 10.4 µM.
On the same count and under the same terms, the same measure for `COc1ccc(Nc2nc(N3CCN(C)CC3)nc3c2cnn3C)cc1Cl`: above 10.4 µM; for `CN(C)CCCC1(C)Oc2ccccc2Sc2ccccc21` (configuration not stated): above 10.4 µM.
Still for that read-out and setting: then `CC(C)(C)c1ccc(C(OC(CN)c2ccccc2)c2ccc(Cl)cc2)cc1` (configuration not stated), with above 10.4 µM.
On the same count and under the same terms, the same measure for `Cc1ccc2[nH]c3c(c2c1)CCCC3NCCCOc1ccc(F)cc1` (configuration not stated): above 10.4 µM.

(Values after ChEMBL document CHEMBL2094269, “WEHI/Eskitis Trypanosoma b. brucei screening data”.)
